# In patent US20060171935A1, “Protecting cell therapy for neurological disorders including Parkinson's disease” (priority 2005, published 2006):
# Tested on: DJ-1 deficient ES cells
# Format: cell-based
# Conditions: not given
# Experimental: DJ-1 has been hypothesized to function in the cellular response to oxidative stress. To investigate the role of DJ-1 in the oxidative stress response in vivo, DJ-1-deficient homozygous mutant (‘knockout’) cells and DJ-1 heterozygote (‘control’) ES cell clones were analyzed for cell viability in the context of increasing concentrations of H2O2. Heterozygous cells were used as controls because the ‘knockout’ subclones were derived from these. Cell viability was initially determined by MTT assay in triplicate (Fezoui et al. 2000). […] The increase in AV-positive cells implicated an apoptotic mechanism of cell death (FIG. 14F).
# In Vivo Assays. ES cells plated in 96-well format (2.3×10^4 cells/well) were treated for 15 hours with H2O2 in ES media deficient in β-mercaptoethanol (Abeliovich et al. 2000). Cell viability (as a percent of untreated control) was determined by MTT assay in triplicate (Fezoui et al. 2000). Annexin V/Propidium Iodide (Molecular probes) staining was performed per the manufacturer's instructions. For dihydrorhodamine-123 staining (DHR, Molecular probes) (Walrand et al. 2003), cells were preincubated for 30 min with DHR (5 μM), washed with PBS, then treated with H2O2 in ES media deficient in β-mercaptoethanol for 15 min at 37° C. The FACS analysis was performed using a FACSTAR sorter (Becton Dickinson). Dopamine uptake assay was performed essentially as described (Farrer et al. 1998). Reported values represent specific uptake from which non-specific uptake, determined in the presence of mazindol, was subtracted, and normalized for protein content (BCA kit, Pierce).
row,Molecule,sensitivity of DJ-1 deficient cells to toxin relative to heterozygous cells
1,CC(=O)N[C@@H](CSC(=O)[C@]1([C@@H](O)C(C)C)NC(=O)[C@H](C)[C@@H]1O)C(=O)O [lactacystin],sensitized

# Same assay, conditions: 15 h exposure, MTT
row,Molecule,sensitivity of DJ-1 deficient cells to toxin relative to heterozygous cells
1,C[C@@H]1C[C@@H]([C@H](O)CC2CC(=O)NC(=O)C2)C(=O)[C@@H](C)C1 [cycloheximide],did not observe altered sensitivity
2,CN[C@@H]1C[C@H]2O[C@@](C)([C@@H]1OC)n1c3ccccc3c3c4c(c5c6ccccc6n2c5c31)C(=O)NC4 [staurosporine],did not observe altered sensitivity
3,OO [H2O2],significantly greater toxicity
4,tunicamycin,did not observe altered sensitivity
5,[Cl][Cu][Cl] [copper],sensitized
